Experimental data published in patent US20080201871A1, “ANTIMICROBIAL COLORANTS” (The Regents of the University of California, priority 2003, published 2008).

Experiments:
[1] = test system: Escherichia coli (E. coli, K-12, Gram-negative); assay: Minimum inhibitory concentration (MIC) procedure in aqueous solution; assay type: cell-based; conditions: 10^7~10^8 CFU/mL, contact time: 24 hr, MIC = minimum concentration giving more than 4 log reductions
Description: (§1) Antimicrobial activity of the agents in aqueous solution was evaluated by a minimum inhibitory concentration (MIC) procedure ([…]. et al., Pharm. Sci., 65(12):1737 (1976)). MIC refers to the lowest concentration of biocides that prohibit population and reproduction of microorganisms. […] Antimicrobial properties of the antimicrobial colorants in aqueous solutions were measured by the MIC procedure.

[2] = test system: Staphylococcus aureus (S. aureus, ATCC #12600, Gram-positive); assay: as above; assay type: cell-based; conditions: 10^7~10^8 CFU/mL, contact time: 24 hr, MIC = minimum concentration giving more than 4 log reductions
Description: as §1

[3] = test system: E. coli; assay: Antimicrobial efficacy (log reduction) at fixed concentration and contact time; assay type: cell-based, Escherichia coli; conditions: for Antimicrobial Efficacy (log reduction) / Antimicrobial efficacy (Log reduction): 10 ppm; for Antimicrobial efficacy (Log reduction): contact time 1 minute
Description: Antimicrobial activity of the agents in aqueous solution was evaluated by a minimum inhibitory concentration (MIC) procedure (Kaminski, J. J., Hyycke, N. M. et al., Pharm. Sci., 65(12):1737 (1976)). MIC refers to the lowest concentration of biocides that prohibit population and reproduction of microorganisms. In this method, 1 mL of an aqueous suspension containing 10^6˜10^7 colony-forming units (CFU)/mL of Staphylococcus aureus (S. aureus, ATCC #12600, Gram-positive) or Escherichia coli (E. coli, K-12, Gram-negative) were placed into 9 mL aqueous solutions containing different concentrations of the agents for a contact time of 24 hours. After the contact, a 100 μL aliquot of the resultant solution was serially diluted by sterilized distilled water to 10^1, 10^2, 10^3, 10^4 and 10^5. 100 μL of the last four dilutions were placed onto a nutrient agar plate and incubated at 37° C. for 24 hours. The same procedure was applied to a distilled water solution without the antimicrobial agents as a control. In this paper, the reported MIC of the antimicrobial colorants is the minimum concentrations that can eliminate more than 4 log reductions of bacteria (1 log reduction is 90%, 2 log reduction is 99%, and so forth).
To better study the biocidal rate of these colorants, the antimicrobial efficacy of the colorants in terms of log reduction is assessed against E. Coli under different contact time ranging from 15 minutes to 24 hours.
Next, the antimicrobial efficacy of the colorants is further challenged by reducing the contact time down to 1 minute at the concentration of 10 ppm.

[4] = Stability study of colorant solutions by UV-vis absorbance; assay type: physicochemical; conditions: 100 ppm aqueous; 100° C. for 4 hours
Description: The stability of the antimicrobial colorants was qualitatively studied by using a UV-vis spectrophotometer under different experimental conditions. The tests were performed with antimicrobial colorant solutions at the concentration of 100 ppm in flasks. The colorants were sampled and the absorbance at the maximum absorption wavelength was tested before treatment as a reference. After visible light exposure in a conditioning room for over 30 days, or heating at boiling for 4 hours, or changing to different pH conditions (pH=4 and 10) for over 24 hours, the solutions were sampled, centrifuged, filtered and tested by UV. The new UV-vis spectra were taken and compared with the control.
The stability of the antimicrobial colorants is of great importance because they are mostly applied in aqueous solutions as biocides or dyes. All stability tests were conducted at a concentration of 100 ppm.
In practical applications, these colorants could be used under either acidic or basic conditions, particularly in coloration of acrylics, nylon and wool. For example, acidic dye bath is preferred for dyeing wool fabrics. Thus, the stability of the colorants in low or high pH solution is more important for textile applications. […] The low stability of those colorants was caused by hydrolysis of an amide linkage between QAS and aminoanthraquinone. […]

[5] = test system: E. coli; assay: Antimicrobial efficacy (log reduction) at fixed concentration and contact time; assay type: cell-based, Escherichia coli; conditions: E. coli 10^7~10^8 CFU/ml; for Antimicrobial Efficacy (log reduction): 10 ppm
[6] = test system: S. aureus; assay: as above; assay type: cell-based, Staphylococcus aureus; conditions: contact time 1 minute, 10 ppm

Structure (SMILES): CCCCCCCCCCCC[N+](C)(C)CC(O)CNc1ccc(NCC(O)C[N+](C)(C)CCCCCCCCCCCC)c2c1C(=O)c1ccccc1C2=O.[Cl-].[Cl-] (centres unmarked) [Di-12]
- MIC of cationic colorants [1]: 4 ppm
- MIC of cationic colorants [2]: 4 ppm
- Biocidal activity compared with CTAB, CPC and Benzalkonium chloride ([3]; Table 6 conditions): more efficient in biocidal activity than the other three bactericides
- Antimicrobial Efficacy (log reduction) ([3]; contact time 0.25 hr): >4 log reduction
- Antimicrobial Efficacy (log reduction) ([3]; contact time 0.5 hr): >4 log reduction
- Antimicrobial Efficacy (log reduction) ([3]; contact time 1 hr): >4 log reduction
- Antimicrobial Efficacy (log reduction) ([3]; contact time 2 hr): >4 log reduction
- Antimicrobial Efficacy (log reduction) ([3]; contact time 4 hr): >4 log reduction
- Antimicrobial Efficacy (log reduction) ([3]; contact time 8 hr): >4 log reduction
- Antimicrobial Efficacy (log reduction) ([3]; contact time 16 hr): >4 log reduction
- Antimicrobial Efficacy (log reduction) ([3]; contact time 24 hr): >4 log reduction
- Change of UV-vis absorbance after heating [4]: slight increases in absorbance
- Change of UV-vis wavelength after heating [4]: negligible change
- Antimicrobial Efficacy (log reduction) [5]: >5 log reduction

Structure (SMILES): CCCCCCCCCCCCCCCC[N+](C)(C)Cc1ccccc1.[Cl-] [Benzalkonium chloride, Benzyldimethyl-hexadecylammonium chloride, reference compound]
- Antimicrobial Efficacy (log reduction) [5]: 2 log reduction

Structure (SMILES): CCCC[N+](C)(C)CC(O)CNc1ccc(NCC(O)C[N+](C)(C)CCCC)c2c1C(=O)c1ccccc1C2=O.[Cl-].[Cl-] (centres unmarked) [Di-4]
- MIC of cationic colorants [1]: 200 ppm
- MIC of cationic colorants [2]: 200 ppm
- Antimicrobial efficacy (Log reduction) [3]: 0 Log reduction
- Antimicrobial Efficacy (log reduction) ([3]; contact time 0.25 hr): 0 log reduction
- Antimicrobial Efficacy (log reduction) ([3]; contact time 0.5 hr): 0 log reduction
- Antimicrobial Efficacy (log reduction) ([3]; contact time 1 hr): 0 log reduction
- Antimicrobial Efficacy (log reduction) ([3]; contact time 2 hr): 0 log reduction
- Antimicrobial Efficacy (log reduction) ([3]; contact time 4 hr): 0 log reduction
- Antimicrobial Efficacy (log reduction) ([3]; contact time 8 hr): 0 log reduction
- Antimicrobial Efficacy (log reduction) ([3]; contact time 16 hr): 0 log reduction
- Antimicrobial Efficacy (log reduction) ([3]; contact time 24 hr): 0 log reduction
- Antimicrobial efficacy (Log reduction) [6]: 0 Log reduction

Structure (SMILES): CCCCCCCC[N+](C)(C)CC(O)CNc1ccc(NCC(O)C[N+](C)(C)CCCCCCCC)c2c1C(=O)c1ccccc1C2=O.[Cl-].[Cl-] (centres unmarked) [Di-8]
- MIC of cationic colorants [1]: 5 ppm
- MIC of cationic colorants [2]: 5 ppm
- Antimicrobial Efficacy (log reduction) ([3]; contact time 0.25 hr): >4 log reduction
- Antimicrobial Efficacy (log reduction) ([3]; contact time 0.5 hr): >4 log reduction
- Antimicrobial Efficacy (log reduction) ([3]; contact time 1 hr): >4 log reduction
- Antimicrobial Efficacy (log reduction) ([3]; contact time 2 hr): >4 log reduction
- Antimicrobial Efficacy (log reduction) ([3]; contact time 4 hr): >4 log reduction
- Antimicrobial Efficacy (log reduction) ([3]; contact time 8 hr): >4 log reduction
- Antimicrobial Efficacy (log reduction) ([3]; contact time 16 hr): >4 log reduction
- Antimicrobial Efficacy (log reduction) ([3]; contact time 24 hr): >4 log reduction
- Log reduction ([5]; 5 ppm, contact time 1 minute): 1 Log reduction

Structure (SMILES): CCCCCCCCCCCCCCCC[N+](C)(C)CC(O)CNc1cccc2c1C(=O)c1ccccc1C2=O.[Cl-] (centres unmarked) [Compound M-16]
- MIC of cationic colorants [1]: 60 ppm
- MIC of cationic colorants [2]: 60 ppm
- Antimicrobial efficacy (Log reduction) [3]: 0 Log reduction
- Antimicrobial efficacy (Log reduction) [6]: 0 Log reduction

Structure (SMILES): CCCCCCCCCCCCCCCC[N+](C)(C)CC(O)CNc1ccc(NCC(O)C[N+](C)(C)CCCCCCCCCCCCCCCC)c2c1C(=O)c1ccccc1C2=O.[Cl-].[Cl-] (centres unmarked) [Di-16]
- MIC of cationic colorants [1]: 60 ppm
- MIC of cationic colorants [2]: 60 ppm
- Antimicrobial efficacy (Log reduction) [3]: 0 Log reduction
- Antimicrobial efficacy (Log reduction) [6]: 0 Log reduction

Structure (SMILES): CCCCCCCCCCCCCCCC[N+](C)(C)C.[Br-] [CTAB, Cetyltrimethyl ammonium bromide, reference compound]
- Antimicrobial Efficacy (log reduction) [5]: 0 log reduction
